Patent publication US10653658B2, “Biofilm inhibiting compositions enhancing weight gain in livestock” (Akeso Biomedical, Inc., priority 2015, dated 2020)
Like-named read-outs stand apart in the source and are kept apart here. Marks after values point to notes of the source that are not given here.

How the values were obtained:
[1] = Zootechnical efficacy of ferric citrate in milk replacer for rearing calves: body weight, feed intake, gain, FCR (Example 11); type: in vivo, rearing calves (German Holstein); settings: milk replacer: T1 Fe(II) sulfate 85 g Fe/tonne, T2 plus ferric citrate 500 g/tonne feed
Procedure: The composition of the basal calf milk replacer is shown in Table 36, and the feeding schedule in Table 37.
The milk replacer was dissolved in warm water at around 50° C. The concentration was 125 grams per liter. The drinking temperature was kept at 38 to 40° C.
Additionally, a commercial calf starter feed (mash) without phytogenics, probiotics, organic acids or enzymes was provided. Straw was also provided in pre-weighed amounts throughout the 56 day feeding period.

[2] = Calf health scoring: body temperature, faeces quality, coughing, nasal discharge, antibiotic treatments (Example 11)
Procedure: A study was performed to evaluate the potential of ferric citrate (CI-PLEX™ CHELATE) to improve calf health, welfare, and performance. A total of 80 rearing calves (German Holstein) were used from d 12 to d 68 of age. 40 calves were fed a basal milk replacer (T1 Control). For comparison, 40 calves were fed the basal milk replacer with addition of ferric (III) citrate (T2 CI-PLEX™ CHELATE, 500 g/tonne feed) with a microtracer present at a rate of 10%, equivalent to 50 g/tonne for product identification purposes only. The basal milk replacer was supplemented with ferrous (II) sulfate at normal commercial rates (supplying 85 g Fe/tonne feed). T2 was also supplemented with normal commercial practice of Fe (ferrous (II) sulfate at 85 g Fe/tonne feed) with Fe at 85 g/tonne feed from the ferric (III) citrate (CI-PLEX™ CHELATE). […] The basal milk replacer batch was produced, and then split into 2 aliquots prior to adding the different inorganic or organic Fe sources to T1, and T2 diets. Calves were housed in rearing units, each unit with pens on either side of a central aisle.
The following parameters were measured: mean pen body weight (BW), feed intake (FI), body weight gain (BWG), feed conversion ratio (FCR, feed:gain) at study start and on days 7, 14, 21, 28, 35, 42, 49 and 56 days on trial. In addition, the following were also recorded: body temperature, faeces quality, coughing score, and nasal discharge.
The scoring of faecal consistency and of rectal temperature, coughing, nasal discharge as well as eye and ear scores were ranked daily.

[3] = tested on: lactobacilli; assay: Faecal lactobacilli counts and L:C ratio in weaner pigs (Example 7); type: in vivo; settings: 0.2 g/L in drinking water; one male pig per pen
Description: (§1) Faeces, cleanliness and health scores was taken daily (Appendix). Faecal scores especially are indicative of diarrhea incidence, and are used in the industry as a general easy to observe gut health indicator. […] Faecal samples were stored under conditions allowing submission to SAC Veterinary Services for quantification of lactobacilli and coliforms, and their ratio (L:C ratio). These are used as key indicators for gut health, with a greater L:C ratio being indicative to better gut health.

[4] = tested on: E. coli; assay: Faecal E. coli counts in weaner pigs (Example 7); type: in vivo; settings: 0.2 g/L in drinking water; one male pig per pen
Description: as §1

[5] = tested on: Campylobacter jejuni NCTC 11168; assay: Biofilm formation on plastic coated UV beads (Example 6); settings: Fe-Tart and Fe-Cit at 50, 100, and 300 μM; FeQ (QPLEX) at 300
[6] = tested on: Pseudomonas aeruginosa PAO-1 strain
Procedure: Pseudomonas aeruginosa PAO-1 strain was routinely grown on either LB (Luria-Bertani, Oxoid, UK) agar plates at 37° C. or in broth at 37° C. with 200 rpm shaking. UV-sterilized glass slides were incubated in either 15 mL RPMI-1640 defined medium (Sigma, UK) or 15 mL RPMI-1640 with Fe-Lac inoculated with diluted (OD600=0.01) bacteria from overnight cultures at 37° C. with 60 rpm shaking for 72 hours. The slides were removed from bacterial culture and washed with 15 mL phosphate buffered saline at room temperature for 5 minutes three times and then rinsed with distilled H2O. After washing, the slides were stained with 20 μM SYTO17 dye (Invitrogen, UK) at room temperature for 30 minutes. After removing excess staining dye and air-drying, the samples were examined using a Carl Zeiss LSM 700 Laser Scanning Microscope with ZEN 2009 imaging software (Carl Zeiss, Germany). The coverage rate of bacteria on the surface was analysed using open source Image J 1.44 software (National Institute of Health, US).
Pseudomonas aeruginosa PAO-1 strain was routinely grown on either LB (Luria-Bertani, Oxoid, UK) agar plates at 37° C. or in broth at 37° C. with 200 rpm shaking. UV-sterilized glass slides were incubated in either 15 mL RPMI-1640 defined medium (Sigma, UK) or 15 mL RPMI-1640 with Fe-Cit inoculated with diluted (OD600=0.01) bacteria from overnight cultures at 37° C. with 60 rpm shaking for 72 hours. The slides were removed from bacterial culture and washed with 15 mL phosphate buffered saline at room temperature for 5 minutes three times and then rinsed with distilled H2O. After washing, the slides were stained with 20 μM SYTO17 dye (Invitrogen, UK) at room temperature for 30 minutes. After removing excess staining dye and air-drying, the samples were examined using a Carl Zeiss LSM 700 Laser Scanning Microscope with ZEN 2009 imaging software (Carl Zeiss, Germany). The coverage rate of bacteria on the surface was analysed using open source Image J 1.44 software (National Institute of Health, US).
Pseudomonas aeruginosa PAO-1 strain was routinely grown on either LB (Luria-Bertani, Oxoid, UK) agar plates at 37° C. or in broth at 37° C. with 200 rpm shaking. […] The slides were removed from bacterial culture and washed with 15 mL phosphate buffered saline at room temperature for 5 minutes three times and then rinsed with distilled H2O. After washing, the slides were stained with 20 μM SYTO17 dye (Invitrogen, UK) at room temperature for 30 minutes. After removing excess staining dye and air-drying, the samples were examined using a Carl Zeiss LSM 700 Laser Scanning Microscope with ZEN 2009 imaging software (Carl Zeiss, Germany). The coverage rate of bacteria on the surface was analysed using open source Image J 1.44 software (National Institute of Health, US).
Pseudomonas aeruginosa PAO-1 strain was routinely grown on either LB (Luria-Bertani, Oxoid, UK) agar plates at 37° C. or in broth at 37° C. with 200 rpm shaking. UV-sterilized glass slides were incubated in either 15 mL RPMI-1640 defined medium (Sigma, UK) or 15 mL RPMI-1640 with Fe-Gly inoculated with diluted (OD600=0.01) bacteria from overnight cultures at 37° C. with 60 rpm shaking for 72 hours. The slides were removed from bacterial culture and washed with 15 mL phosphate buffered saline at room temperature for 5 minutes three times and then rinsed with distilled H2O. […] The coverage rate of bacteria on the surface was analysed using open source Image J 1.44 software (National Institute of Health, US).

[7] = 0.2 g/L in drinking water; weaner pigs
Description: Animal Details • Number of treatments: 4 treatments • Number of replicates: 4 pens • Number of animals per pen: 4 pigs (balanced for sex as much as possible) • Number of pens in study: 16 pens • Animal species and breed: newly weaned pigs (Large White×Landrace) • Total number of animals: 64
There were four (4) treatments, each having 4 replicate pens with 4 pigs per replicate pen, i.e. 16 pigs per treatment or 64 pigs in total.
The feeds used were standard commercial, non-medicated feeds, tailored for weaner pigs. The feeds were offered as a 3 mm pellet and ad libitum. Water will also be available ad libitum.
The Ethology 3 building of SRUC's Easter Howgate Pig Unit were used in this study. This house consists of 6 rooms, each with 4 pens, so holds up to 24 pens of 4 m^2 each; for this study, 4 rooms were used. The animal house, which is an environmentally controlled building, were sanitized prior to use and between rounds. Pigs were placed at weaning on a thick layer of fresh white wood shavings or straw in pens. Pens were balanced as much as possible for litter origin and sex (2 intact males and 2 females). Pens were bedded with additional sawdust or straw as required, and were equipped with a single feeder and nipple drinker. Foods were available ad libitum throughout. Water were supplied via measured bottles per pen, and also available. Environmental temperature were maintained at 26° C. for the first 4 days after weaning and then decreased by 2° C. for the remainder of the experiment. Lights were on from 08:00 am till 18:00 μm and night-lights maintained between 18:00 μm and 08:00 am.
Pigs were individually weighed at day 0, 6 and 13. Pigs removed or found dead weighed, and date noted.
The volume of feed offered per pen was recorded daily from day 0 until day 12, inclusive. Feed refusals were recorded daily from day 1 until day 13, inclusive.
Pig weights, feed offered and feed refusals were used to determine averaged daily weight gain, daily feed intake and feed conversion ratio, over day 0 to 6, 6 to 13, as well as 0 to 13.
From day 0 until day 13, the volume of water offered per pen was recorded daily and water levels were recorded from the water bottles prior to morning feeding before tupping up.
Data gathered were analyzed using analysis of variance (ANOVA), to test for the effect of Fe-complex provision per se and Fe-complex type. Treatments were allocated in blocks within Ethology 3, as each of the four proposed treatments were in each of the four rooms used. As such, rooms were used as block in the model. Effects were considered significant at P<0.05.

[8] = tested on: Campylobacter jejuni; assay: Campylobacter carriage in chickens after oral challenge, caecal contents at day 35 (Example 9); type: in vivo; settings: 340 μM in the drinking water
Procedure: A study was performed to evaluate reduction of Campylobacter carriage in chickens using ferric lactate in one treatment group, and FeQ (Q-PLEX) in a second treatment group. A third treatment group served as a positive control. The ferric lactate and FeQ were administered to the treatment groups at a concentration of 340 μM in the drinking water. Each treatment group comprised 12 birds per pen. All three treatment groups were orally challenged with 10^5 cfu of Campylobacter jejuni at day 14 of the trial. At day 35 all birds were euthanized, and quantitative bacteriology performed on caecal contents.

[9] = Score 0: normal, 1: slightly disorder, 2: middle disorder, 3: severe disorder

## O=S(=O)([O-])[O-].[Fe+2] [Fe (II)sulfate]
[1]
  ADFI 1-21 d of rearing: 804 ± 38 g
  ADFI 1-56 d of rearing: 1.49 ± 0.02 kg
  ADFI 22-56 d of rearing: 1.90 ± 0.02 kg
  ADG 1-21 d of rearing: 268 ± 30^a g
  ADG 1-56 d of rearing: 723 ± 36^a g
  ADG 22-56 d of rearing: 792 ± 48^a g
  FCR 1-21 d of rearing: 1.339 ± 0.142^a feed:gain
  FCR 1-56 d of rearing: 2.065 ± 0.100^a feed:gain
  FCR 22-56 d of rearing: 2.408 ± 0.148^a feed:gain
  Mean BW at d 56 of rearing: 91.9 ± 2.0^a kg
[2]; [9]
  Mean daily body temperature score 1-56 d of rearing: 0.09 ± 0.11^a
  Mean daily coughing score 1-56 d of rearing: 0.51 ± 0.13
  Mean daily ear score 1-56 d of rearing: 0.04 ± 0.07
  Mean daily eye score 1-56 d of rearing: 0.04 ± 0.07
  Mean daily faecal score 1-56 d of rearing: 0.68 ± 0.14
  Mean daily nasal discharge score 1-56 d of rearing: 0.44 ± 0.12
[2]; bovine, in vivo
  % excluded, 1-56 d of rearing: 0%
  No calves excluded, 1-56 d of rearing: 1
[2]; of 40 calves per treatment
  No calves treated with antibiotics, 1-56 d of rearing: 3

## O=C([O-])C(O)C(O)C(=O)[O-].O=C([O-])C(O)C(O)C(=O)[O-].O=C([O-])C(O)C(O)C(=O)[O-].[Fe+3].[Fe+3] (centres unmarked) [Fe-Tart, ferric tartrate]
[3]
  Faecal lactobacilli counts, day 0 post weaning: 8.84 10log cfu/g
  Faecal lactobacilli counts, day 4 post weaning: 8.94 10log cfu/g
  Faecal lactobacilli counts, day 7 post weaning: 9.48 10log cfu/g
  Faecal lactobacilli counts, day 14 post weaning: 8.79 10log cfu/g
[4]
  Faecal E. coli counts, day 0 post weaning: 8.67 10log cfu/g
  Faecal E. coli counts, day 4 post weaning: 6.42 10log cfu/g
  Faecal E. coli counts, day 7 post weaning: 6.51 10log cfu/g
  Faecal E. coli counts, day 14 post weaning: 6.43 10log cfu/g
[5]
  C. jejuni biofilm formation on plastic coated UV beads (FIG. 9): inhibited C. jejuni biofilm formation
[6]; 100 and 300 μM, 72 hours
  biofilm formation (coverage rate on glass slide): inhibits the formation of biofilm

## NCC(=O)[O-].NCC(=O)[O-].NCC(=O)[O-].[Fe+3] [Fe-Gly, Ferric glycinate]
[6]; 300 μM, 72 hours
  biofilm formation (coverage rate on glass slide): able to inhibit biofilm formation
[6]; 100 and 300 μM, 72 hours
  biofilm formation (coverage rate on glass slide): inhibits the formation of biofilm

## CC(O)C(=O)O.CC(O)C(=O)O.CC(O)C(=O)O.[Fe] (centres unmarked) [Fe-Lac, ferric lactate]
[3]
  Faecal lactobacilli counts, day 0 post weaning: 8.68 10log cfu/g
  Faecal lactobacilli counts, day 4 post weaning: 8.76 10log cfu/g
  Faecal lactobacilli counts, day 7 post weaning: 8.97 10log cfu/g
  Faecal lactobacilli counts, day 14 post weaning: 8.77 10log cfu/g
  Lactobacilli to E. coli ratio (L:C), day 0 post weaning: 1.03
  Lactobacilli to E. coli ratio (L:C), day 4 post weaning: 1.08
  Lactobacilli to E. coli ratio (L:C), day 7 post weaning: 1.33
  Lactobacilli to E. coli ratio (L:C), day 14 post weaning: 1.45
[4]
  Faecal E. coli counts, day 0 post weaning: 8.40 10log cfu/g
  Faecal E. coli counts, day 4 post weaning: 7.80 10log cfu/g
  Faecal E. coli counts, day 7 post weaning: 6.37 10log cfu/g
  Faecal E. coli counts, day 14 post weaning: 5.98 10log cfu/g
[7]
  Averaged body weight gain, days 0 to 4 post weaning: 153 g/day/pig
  Averaged body weight gain, days 0 to 7 post weaning: 172 g/day/pig
  Averaged body weight gain, days 0 to 14 post weaning: 380 g/day/pig
  Averaged body weight gain, days 4 to 7 post weaning: 197 g/day/pig
  Averaged body weight gain, days 7 to 14 post weaning: 587 g/day/pig
  Averaged daily feed intake, days 0 to 4 post weaning: 154 g/day/pig
  Averaged daily feed intake, days 0 to 7 post weaning: 223 g/day/pig
  Averaged daily feed intake, days 0 to 14 post weaning: 378 g/day/pig
  Averaged daily feed intake, days 4 to 7 post weaning: 315 g/day/pig
  Averaged daily feed intake, days 7 to 14 post weaning: 532 g/day/pig
  Body weights, day 0 post weaning: 9.74 kg/pig
  Body weights, day 4 post weaning: 10.35 kg/pig
  Body weights, day 7 post weaning: 10.94 kg/pig
  Body weights, day 14 post weaning: 15.05 kg/pig
  Feed conversion ratio, days 0 to 4 post weaning: 0.54 g/g
  Feed conversion ratio, days 0 to 7 post weaning: 2.67 g/g
  Feed conversion ratio, days 0 to 14 post weaning: 1.00 g/g
  Feed conversion ratio, days 7 to 14 post weaning: 0.91 g/g
[6]; 10, 50, and 100 μM
  biofilm formation (coverage rate on glass slide), dispersion effect (FIG. 5B): inhibits the formation of biofilm
[6]; 50, 100, and 300 μM, 72 hours
  biofilm formation (coverage rate on glass slide), titration effect (FIG. 5A): inhibits the formation of biofilm
[8]
  levels of Campylobacter in caeca at day 35, comparison between treatments (FIG. 11): lowest levels
[8]; oral challenge at day 14
  levels of Campylobacter in caeca at day 35 compared with positive control (FIG. 11): lower levels of Campylobacter in their caeca
